# Measurements as given in ChEMBL document CHEMBL1909046, “DrugMatrix in vitro pharmacology data”.
# Target: Sodium-dependent noradrenaline transporter (Homo sapiens, UniProt P23975)
# Assay: DRUGMATRIX: Norepinephrine Transporter radioligand binding (ligand: [125I] RTI-55)
# Assay type: cell membranes, MDCK, Membrane
# Conditions: mdck; Not Active = under 50% inhibition at 10 µM
# Chain of Sodium-dependent noradrenaline transporter (P23975 whole entry): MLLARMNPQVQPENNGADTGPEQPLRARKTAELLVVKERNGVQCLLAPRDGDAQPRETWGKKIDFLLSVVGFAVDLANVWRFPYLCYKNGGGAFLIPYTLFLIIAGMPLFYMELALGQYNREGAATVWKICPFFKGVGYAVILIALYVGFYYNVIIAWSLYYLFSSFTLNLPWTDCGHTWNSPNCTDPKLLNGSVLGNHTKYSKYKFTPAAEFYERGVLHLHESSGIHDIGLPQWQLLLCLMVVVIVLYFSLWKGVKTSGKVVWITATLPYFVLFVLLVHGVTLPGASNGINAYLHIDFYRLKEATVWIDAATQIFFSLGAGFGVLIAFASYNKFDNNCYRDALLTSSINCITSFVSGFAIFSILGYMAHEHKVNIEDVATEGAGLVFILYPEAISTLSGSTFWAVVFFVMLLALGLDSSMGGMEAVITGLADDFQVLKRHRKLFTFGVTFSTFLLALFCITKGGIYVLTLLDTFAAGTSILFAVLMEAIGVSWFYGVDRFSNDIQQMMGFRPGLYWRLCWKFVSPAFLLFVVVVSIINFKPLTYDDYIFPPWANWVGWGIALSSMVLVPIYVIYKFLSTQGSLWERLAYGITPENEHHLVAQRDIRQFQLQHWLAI
row,Compound,IC50
1,O=C(N[C@H](CO)[C@H](O)c1ccc([N+](=O)[O-])cc1)C(Cl)Cl [CHLORAMPHENICOL],Not Active
2,ClC(Cl)Cl [CHLOROFORM],Not Active
3,C=C1CC[C@H](O)C/C1=C/C=C1\CCC[C@]2(C)[C@@H]([C@H](C)CCCC(C)C)CC[C@@H]12 [CHOLECALCIFEROL],Not Active
4,C[N+](C)(C)CCO.[Cl-] [CHOLINE CHLORIDE],Not Active
5,CCOC(=O)C(C)(C)Oc1ccc(Cl)cc1 [CLOFIBRATE],Not Active
6,CC(=O)OCC(=O)[C@@]1(O)CC[C@H]2[C@@H]3CCC4=CC(=O)CC[C@]4(C)[C@H]3C(=O)C[C@@]21C [CORTISONE ACETATE],Not Active
7,O=c1ccc2ccccc2o1 [COUMARIN],Not Active
8,C[C@@H]1C[C@@H]([C@H](O)CC2CC(=O)NC(=O)C2)C(=O)[C@@H](C)C1 [CYCLOHEXIMIDE],Not Active
9,CN(C)/N=N/c1[nH]cnc1C(N)=O [DACARBAZINE],Not Active
10,COc1ccc2c(c1)[C@]13CCCC[C@@H]1[C@H](C2)N(C)CC3 [DEXTROMETHORPHAN],Not Active

# Test system: not listed separately
# Assay: DRUGMATRIX: GABAA, Muscimol, Central radioligand binding (ligand: [3H] Muscimol)
# Assay type: cell membranes, Rattus norvegicus, Wistar, Brain, Membrane
# Conditions: Not Active = under 50% inhibition at 10 µM
Compound,IC50,Ki
O=C(N[C@H](CO)[C@H](O)c1ccc([N+](=O)[O-])cc1)C(Cl)Cl [CHLORAMPHENICOL],Not Active,Not Active
ClC(Cl)Cl [CHLOROFORM],Not Active,Not Active
C=C1CC[C@H](O)C/C1=C/C=C1\CCC[C@]2(C)[C@@H]([C@H](C)CCCC(C)C)CC[C@@H]12 [CHOLECALCIFEROL],Not Active,Not Active
C[N+](C)(C)CCO.[Cl-] [CHOLINE CHLORIDE],Not Active,Not Active
CCOC(=O)C(C)(C)Oc1ccc(Cl)cc1 [CLOFIBRATE],Not Active,Not Active
CC(=O)OCC(=O)[C@@]1(O)CC[C@H]2[C@@H]3CCC4=CC(=O)CC[C@]4(C)[C@H]3C(=O)C[C@@]21C [CORTISONE ACETATE],Not Active,Not Active
O=c1ccc2ccccc2o1 [COUMARIN],Not Active,Not Active
C[C@@H]1C[C@@H]([C@H](O)CC2CC(=O)NC(=O)C2)C(=O)[C@@H](C)C1 [CYCLOHEXIMIDE],Not Active,Not Active
CN(C)/N=N/c1[nH]cnc1C(N)=O [DACARBAZINE],Not Active,Not Active
COc1ccc2c(c1)[C@]13CCCC[C@@H]1[C@H](C2)N(C)CC3 [DEXTROMETHORPHAN],Not Active,Not Active

# Test system: not listed separately
# Assay: DRUGMATRIX: Glutamate, NMDA, Agonism radioligand binding (ligand: [3H] CGP-39653)
# Assay type: cell membranes, Rattus norvegicus, Wistar, Cerebral cortex, Membrane
# Conditions: Not Active = under 50% inhibition at 10 µM
Compound,IC50,Ki
O=C(N[C@H](CO)[C@H](O)c1ccc([N+](=O)[O-])cc1)C(Cl)Cl [CHLORAMPHENICOL],Not Active,Not Active
ClC(Cl)Cl [CHLOROFORM],Not Active,Not Active
C=C1CC[C@H](O)C/C1=C/C=C1\CCC[C@]2(C)[C@@H]([C@H](C)CCCC(C)C)CC[C@@H]12 [CHOLECALCIFEROL],Not Active,Not Active
C[N+](C)(C)CCO.[Cl-] [CHOLINE CHLORIDE],Not Active,Not Active
CCOC(=O)C(C)(C)Oc1ccc(Cl)cc1 [CLOFIBRATE],Not Active,Not Active
CC(=O)OCC(=O)[C@@]1(O)CC[C@H]2[C@@H]3CCC4=CC(=O)CC[C@]4(C)[C@H]3C(=O)C[C@@]21C [CORTISONE ACETATE],Not Active,Not Active
O=c1ccc2ccccc2o1 [COUMARIN],Not Active,Not Active
C[C@@H]1C[C@@H]([C@H](O)CC2CC(=O)NC(=O)C2)C(=O)[C@@H](C)C1 [CYCLOHEXIMIDE],Not Active,Not Active
CN(C)/N=N/c1[nH]cnc1C(N)=O [DACARBAZINE],Not Active,Not Active
COc1ccc2c(c1)[C@]13CCCC[C@@H]1[C@H](C2)N(C)CC3 [DEXTROMETHORPHAN],Not Active,Not Active

# Test system: not listed separately
# Assay: DRUGMATRIX: Interleukin IL-1 radioligand binding (ligand: [125I] interleukin 1beta)
# Assay type: cell membranes, Membrane
# Conditions: nih3t3; Not Active = under 50% inhibition at 10 µM
Compound,IC50,Ki
O=C(N[C@H](CO)[C@H](O)c1ccc([N+](=O)[O-])cc1)C(Cl)Cl [CHLORAMPHENICOL],Not Active,Not Active
ClC(Cl)Cl [CHLOROFORM],Not Active,Not Active
C=C1CC[C@H](O)C/C1=C/C=C1\CCC[C@]2(C)[C@@H]([C@H](C)CCCC(C)C)CC[C@@H]12 [CHOLECALCIFEROL],Not Active,Not Active
C[N+](C)(C)CCO.[Cl-] [CHOLINE CHLORIDE],Not Active,Not Active
CCOC(=O)C(C)(C)Oc1ccc(Cl)cc1 [CLOFIBRATE],Not Active,Not Active
CC(=O)OCC(=O)[C@@]1(O)CC[C@H]2[C@@H]3CCC4=CC(=O)CC[C@]4(C)[C@H]3C(=O)C[C@@]21C [CORTISONE ACETATE],Not Active,Not Active
O=c1ccc2ccccc2o1 [COUMARIN],Not Active,Not Active
C[C@@H]1C[C@@H]([C@H](O)CC2CC(=O)NC(=O)C2)C(=O)[C@@H](C)C1 [CYCLOHEXIMIDE],Not Active,Not Active
CN(C)/N=N/c1[nH]cnc1C(N)=O [DACARBAZINE],Not Active,Not Active
COc1ccc2c(c1)[C@]13CCCC[C@@H]1[C@H](C2)N(C)CC3 [DEXTROMETHORPHAN],Not Active,Not Active

# Target: Acetylcholinesterase (Homo sapiens, UniProt P22303)
# Sequence (P22303 whole entry): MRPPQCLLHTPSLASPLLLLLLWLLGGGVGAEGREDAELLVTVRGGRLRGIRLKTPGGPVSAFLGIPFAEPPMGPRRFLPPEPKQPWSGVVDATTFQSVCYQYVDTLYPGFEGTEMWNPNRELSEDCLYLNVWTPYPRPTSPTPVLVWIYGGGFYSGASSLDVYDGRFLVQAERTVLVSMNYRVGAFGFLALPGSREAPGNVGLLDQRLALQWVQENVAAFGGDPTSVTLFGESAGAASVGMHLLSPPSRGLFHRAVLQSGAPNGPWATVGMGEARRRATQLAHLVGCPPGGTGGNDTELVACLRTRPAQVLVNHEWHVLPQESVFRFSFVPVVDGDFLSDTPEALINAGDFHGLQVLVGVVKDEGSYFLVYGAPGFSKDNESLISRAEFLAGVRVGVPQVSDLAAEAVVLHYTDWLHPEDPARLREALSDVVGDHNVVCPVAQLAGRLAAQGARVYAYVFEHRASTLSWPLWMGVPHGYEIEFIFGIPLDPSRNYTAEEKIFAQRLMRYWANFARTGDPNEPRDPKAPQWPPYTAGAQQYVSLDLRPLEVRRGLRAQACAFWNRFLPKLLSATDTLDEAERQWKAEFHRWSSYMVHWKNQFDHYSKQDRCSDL
# Assay: DRUGMATRIX: Acetylcholinesterase enzyme inhibition (substrate: acetylthiocholine)
# Assay type: cell-based, HEK293
# Conditions: hek293; Not Active = under 50% inhibition at 10 µM
row,Compound,IC50
1,O=C(N[C@H](CO)[C@H](O)c1ccc([N+](=O)[O-])cc1)C(Cl)Cl [CHLORAMPHENICOL],Not Active
2,ClC(Cl)Cl [CHLOROFORM],Not Active
3,C=C1CC[C@H](O)C/C1=C/C=C1\CCC[C@]2(C)[C@@H]([C@H](C)CCCC(C)C)CC[C@@H]12 [CHOLECALCIFEROL],Not Active
4,C[N+](C)(C)CCO.[Cl-] [CHOLINE CHLORIDE],Not Active
5,CCOC(=O)C(C)(C)Oc1ccc(Cl)cc1 [CLOFIBRATE],Not Active
6,CC(=O)OCC(=O)[C@@]1(O)CC[C@H]2[C@@H]3CCC4=CC(=O)CC[C@]4(C)[C@H]3C(=O)C[C@@]21C [CORTISONE ACETATE],Not Active
7,O=c1ccc2ccccc2o1 [COUMARIN],Not Active
8,C[C@@H]1C[C@@H]([C@H](O)CC2CC(=O)NC(=O)C2)C(=O)[C@@H](C)C1 [CYCLOHEXIMIDE],Not Active
9,CN(C)/N=N/c1[nH]cnc1C(N)=O [DACARBAZINE],Not Active
10,COc1ccc2c(c1)[C@]13CCCC[C@@H]1[C@H](C2)N(C)CC3 [DEXTROMETHORPHAN],Not Active

# Target: T1, Alpha-2C adrenergic receptor (Homo sapiens, UniProt P18825)
# T1 sequence (P18825 whole entry): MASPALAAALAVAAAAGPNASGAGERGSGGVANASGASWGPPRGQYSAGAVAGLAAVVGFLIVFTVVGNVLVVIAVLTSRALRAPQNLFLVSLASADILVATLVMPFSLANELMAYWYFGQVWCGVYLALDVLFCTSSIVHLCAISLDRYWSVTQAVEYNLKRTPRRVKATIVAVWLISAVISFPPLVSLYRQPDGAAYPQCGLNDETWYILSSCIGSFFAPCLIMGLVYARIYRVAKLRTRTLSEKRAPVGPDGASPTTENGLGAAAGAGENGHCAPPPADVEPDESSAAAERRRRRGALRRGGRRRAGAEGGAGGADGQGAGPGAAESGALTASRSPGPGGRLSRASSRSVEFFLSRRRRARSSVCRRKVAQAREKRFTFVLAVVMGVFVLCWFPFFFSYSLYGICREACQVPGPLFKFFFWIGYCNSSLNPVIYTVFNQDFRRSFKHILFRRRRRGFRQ
# Assay: DRUGMATRIX: Adrenergic Alpha-2C radioligand binding (ligand: [3H] MK-912)
# Assay type: cell membranes, Sf9, Membrane
# Conditions: sf9
row,Compound,IC50
1,O=C(N[C@H](CO)[C@H](O)c1ccc([N+](=O)[O-])cc1)C(Cl)Cl [CHLORAMPHENICOL],Not Active
2,ClC(Cl)Cl [CHLOROFORM],Not Active
3,C=C1CC[C@H](O)C/C1=C/C=C1\CCC[C@]2(C)[C@@H]([C@H](C)CCCC(C)C)CC[C@@H]12 [CHOLECALCIFEROL],Not Active
4,C[N+](C)(C)CCO.[Cl-] [CHOLINE CHLORIDE],Not Active
5,CCOC(=O)C(C)(C)Oc1ccc(Cl)cc1 [CLOFIBRATE],Not Active
6,CC(=O)OCC(=O)[C@@]1(O)CC[C@H]2[C@@H]3CCC4=CC(=O)CC[C@]4(C)[C@H]3C(=O)C[C@@]21C [CORTISONE ACETATE],Not Active
7,O=c1ccc2ccccc2o1 [COUMARIN],Not Active
8,C[C@@H]1C[C@@H]([C@H](O)CC2CC(=O)NC(=O)C2)C(=O)[C@@H](C)C1 [CYCLOHEXIMIDE],Not Active
9,CN(C)/N=N/c1[nH]cnc1C(N)=O [DACARBAZINE],Not Active
10,COc1ccc2c(c1)[C@]13CCCC[C@@H]1[C@H](C2)N(C)CC3 [DEXTROMETHORPHAN],Not Active

# Target: Protein phosphatase 3 catalytic subunit alpha (Homo sapiens, UniProt Q08209);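 note: inhibition of calcineurin (PP2B) enzyme activity, measured with DiFMUP as the substrate; in other assays of this panel Not Active means under 50% inhibition at 10 µM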
# Parameters: species or system Escherichia coli
# Conditions: not given
row,Compound,IC50
1,O=C(N[C@H](CO)[C@H](O)c1ccc([N+](=O)[O-])cc1)C(Cl)Cl [CHLORAMPHENICOL],Not Active
2,ClC(Cl)Cl [CHLOROFORM],Not Active
3,C=C1CC[C@H](O)C/C1=C/C=C1\CCC[C@]2(C)[C@@H]([C@H](C)CCCC(C)C)CC[C@@H]12 [CHOLECALCIFEROL],Not Active
4,C[N+](C)(C)CCO.[Cl-] [CHOLINE CHLORIDE],Not Active
5,CCOC(=O)C(C)(C)Oc1ccc(Cl)cc1 [CLOFIBRATE],Not Active
6,CC(=O)OCC(=O)[C@@]1(O)CC[C@H]2[C@@H]3CCC4=CC(=O)CC[C@]4(C)[C@H]3C(=O)C[C@@]21C [CORTISONE ACETATE],Not Active
7,O=c1ccc2ccccc2o1 [COUMARIN],Not Active
8,C[C@@H]1C[C@@H]([C@H](O)CC2CC(=O)NC(=O)C2)C(=O)[C@@H](C)C1 [CYCLOHEXIMIDE],Not Active
9,CN(C)/N=N/c1[nH]cnc1C(N)=O [DACARBAZINE],Not Active
10,COc1ccc2c(c1)[C@]13CCCC[C@@H]1[C@H](C2)N(C)CC3 [DEXTROMETHORPHAN],Not Active
